Laboratory results as given in PubChem BioAssay AID1745844 (Carcinogenic Potency Database (CPDB), 2022).
Where “and” joins values, the source holds several entries; their conditions need not be identical. Equal values may be shown once. Calls of active or inactive are those of the source. No rule for the calls is given here.

Tested on: rodent lifetime carcinogenesis bioassay, tumor incidence TD50
Experiment: carcinogenic potency in animals, long-term in vivo studies, CPDB compilation (AID 1745844)
Settings: inhaled, dosed 104 weeks, study length 104 weeks; for carcinogen call: site: liver, lesion: one or several types, types not named

Molecule `C=CC(=C)Cl` has a TD50 (mouse, strain B6C3F1, males, site: lung, lesion: alveolar/bronchiolar adenoma + alveolar/bronchiolar carcinoma) of 17.2 mg/kg/day, a TD50 (mouse, strain B6C3F1, males, site: lung, lesion: alveolar/bronchiolar adenoma) of 30.7 mg/kg/day and a TD50 (mouse, strain B6C3F1, males, site: lung, lesion: alveolar/bronchiolar carcinoma) of 26.4 mg/kg/day. It also gave a TD50 (mouse, strain B6C3F1, males, site: mesentery, lesion: hemangioma + hemangiosarcoma) of 37.6 mg/kg/day, a TD50 (mouse, strain B6C3F1, males, site: mesentery, lesion: hemangiosarcoma) of 39 mg/kg/day and a TD50 (mouse, strain B6C3F1, males, site: subcutaneous tissue, lesion: hemangiosarcoma) of 177 mg/kg/day. It also gave a TD50 (rat, strain Fischer 344, females, site: all sites, lesion: mononuclear-cell leukemia) of 30.4 mg/kg/day, a TD50 (rat, strain Fischer 344, females, site: any site (literature study), lesion: several types, types named in the paper) of 25.4 mg/kg/day and a TD50 (rat, strain Fischer 344, females, site: clitoral gland, lesion: adenoma + adenoma, bilateral + carcinoma + carcinoma, bilateral) of 7.14 mg/kg/day. The TD50 (rat, strain Fischer 344, females, site: clitoral gland, lesion: carcinoma + carcinoma, bilateral) was 12.4 mg/kg/day, the TD50 (rat, strain Fischer 344, females, site: kidney, lesion: tubule adenoma + tubule carcinoma) was 183 mg/kg/day and the TD50 (rat, strain Fischer 344, females, site: kidney, lesion: tubule adenoma) was 461 mg/kg/day and 183 mg/kg/day. The TD50 (rat, strain Fischer 344, females, site: lung, lesion: alveolar/bronchiolar adenoma) was 279 mg/kg/day, the TD50 (rat, strain Fischer 344, females, site: mammary gland, lesion: carcinoma + fibroadenoma) was 20.4 mg/kg/day and the TD50 (rat, strain Fischer 344, females, site: mammary gland, lesion: fibroadenoma) was 16.3 mg/kg/day. It also gave a TD50 (rat, strain Fischer 344, females, site: oral mucosa + gingiva + mammary gland + pharynx + thyroid gland + tongue, lesion: squamous-cell papilloma + carcinoma + fibroadenoma + squamous-cell carcinoma + follicular-cell adenoma + follicular-cell carcinoma) of 23.3 mg/kg/day, a TD50 (rat, strain Fischer 344, females, site: oral mucosa + gingiva + pharynx + tongue, lesion: squamous-cell papilloma + squamous-cell carcinoma) of 33.9 mg/kg/day and a TD50 (rat, strain Fischer 344, females, site: oral mucosa + gingiva + pharynx + tongue, lesion: squamous-cell papilloma) of 61.2 mg/kg/day. The TD50 (rat, strain Fischer 344, females, site: pharynx + tongue, lesion: squamous-cell carcinoma) was 77.8 mg/kg/day, the TD50 (rat, strain Fischer 344, females, site: thyroid gland, lesion: follicular-cell adenoma + follicular-cell carcinoma) was 113 mg/kg/day and the TD50 (rat, strain Fischer 344, females, site: tongue, lesion: squamous-cell carcinoma + squamous-cell papilloma) was 32.9 mg/kg/day. For the same molecule, the TD50 (rat, strain Fischer 344, females, site: tongue, lesion: squamous-cell carcinoma) was 91.1 mg/kg/day, the TD50 (rat, strain Fischer 344, females, site: tongue, lesion: squamous-cell papilloma) was 53.5 mg/kg/day and the TD50 (rat, strain Fischer 344, females, site: urinary bladder, lesion: transitional-cell carcinoma) was 467 mg/kg/day. It also gave a TD50 (rat, strain Fischer 344, males, site: all sites, lesion: mesothelioma, malignant) of 27.1 mg/kg/day, a TD50 (rat, strain Fischer 344, males, site: any site (literature study), lesion: several types, types named in the paper) of 6.12 mg/kg/day and a TD50 (rat, strain Fischer 344, males, site: kidney, lesion: tubule adenoma + tubule carcinoma) of 16.1 mg/kg/day. For the same molecule, the TD50 (rat, strain Fischer 344, males, site: kidney, lesion: tubule adenoma) was 38.9 mg/kg/day and 15.4 mg/kg/day, the TD50 (rat, strain Fischer 344, males, site: lung, lesion: alveolar/bronchiolar adenoma + alveolar/bronchiolar carcinoma) was 23.8 mg/kg/day and the TD50 (rat, strain Fischer 344, males, site: lung, lesion: alveolar/bronchiolar carcinoma) was 24.5 mg/kg/day. The TD50 (rat, strain Fischer 344, males, site: oral mucosa + gingiva + lung + pharynx + thyroid gland + tongue, lesion: squamous-cell papilloma + alveolar/bronchiolar adenoma + alveolar/bronchiolar carcinoma + follicular-cell adenoma + follicular-c) was 5.79 mg/kg/day, the TD50 (rat, strain Fischer 344, males, site: oral mucosa + gingiva + pharynx + tongue, lesion: squamous-cell papilloma + squamous-cell carcinoma) was 10.1 mg/kg/day and the TD50 (rat, strain Fischer 344, males, site: oral mucosa + gingiva + pharynx + tongue, lesion: squamous-cell papilloma) was 11.1 mg/kg/day. The TD50 (rat, strain Fischer 344, males, site: oral mucosa + gingiva + pharynx, lesion: squamous-cell papilloma) was 39.2 mg/kg/day, the TD50 (rat, strain Fischer 344, males, site: thyroid gland, lesion: c-cell adenoma) was 20 mg/kg/day and the TD50 (rat, strain Fischer 344, males, site: thyroid gland, lesion: follicular-cell adenoma + follicular-cell carcinoma) was 18.7 mg/kg/day. For the same molecule, the TD50 (rat, strain Fischer 344, males, site: thyroid gland, lesion: follicular-cell adenoma) was 22 mg/kg/day, the TD50 (rat, strain Fischer 344, males, site: tongue, lesion: squamous-cell carcinoma + squamous-cell papilloma) was 13.6 mg/kg/day and the TD50 (rat, strain Fischer 344, males, site: tongue, lesion: squamous-cell papilloma) was 15.6 mg/kg/day. The TD50 (rat, strain Fischer 344, males, site: urinary bladder, lesion: transitional-cell carcinoma) was 99.9 mg/kg/day, the TD50 (rat, strain Fischer 344, males, site: urinary bladder, lesion: transitional-cell papilloma) was 468 mg/kg/day and the TD50 (rat, strain Wistar-random, females, site: any site (literature study), lesion: several types, types named in the paper) was 37.4 mg/kg/day (inactive). For the same molecule, the carcinogen call (rat, strain Wistar-random, females) was “negative (inactive)”, the TD50 (rat, strain Wistar-random, females, site: mammary gland, lesion: fibroadenoma) was 55.1 mg/kg/day (inactive) and the TD50 (rat, strain Wistar-random, males, site: any site (literature study), lesion: several types, types named in the paper) was 66.4 mg/kg/day (inactive). The carcinogen call (rat, strain Wistar-random, males) was “negative (inactive)”.
